The results in this text go back to ChEMBL document CHEMBL3414549, “Structural investigation of B-Raf paradox breaker and inducer inhibitors” (J Med Chem, 2015).

One may read the pIC50 as the negative decadic logarithm of the IC50, by convention in mol/L. Broadly, the pKd is the Kd on a negative log10 scale, so that one unit is a factor of ten. Low values mean a high Kd, high ones a low Kd. The term pEC50 denotes the EC50 on a negative log10 scale, so that one unit is a factor of ten.

The target of assay [1] is T1, Serine/threonine-protein kinase B-raf (Homo sapiens, UniProt P15056). Briefly: Binding affinity to recombinant human full-length wild type B-Raf (unknown origin) assessed as SPQKPIVR accessible protease cleavage peptide level by LC-MS/MS analysis relative to control.
Target sequence in this assay (P15056 whole entry): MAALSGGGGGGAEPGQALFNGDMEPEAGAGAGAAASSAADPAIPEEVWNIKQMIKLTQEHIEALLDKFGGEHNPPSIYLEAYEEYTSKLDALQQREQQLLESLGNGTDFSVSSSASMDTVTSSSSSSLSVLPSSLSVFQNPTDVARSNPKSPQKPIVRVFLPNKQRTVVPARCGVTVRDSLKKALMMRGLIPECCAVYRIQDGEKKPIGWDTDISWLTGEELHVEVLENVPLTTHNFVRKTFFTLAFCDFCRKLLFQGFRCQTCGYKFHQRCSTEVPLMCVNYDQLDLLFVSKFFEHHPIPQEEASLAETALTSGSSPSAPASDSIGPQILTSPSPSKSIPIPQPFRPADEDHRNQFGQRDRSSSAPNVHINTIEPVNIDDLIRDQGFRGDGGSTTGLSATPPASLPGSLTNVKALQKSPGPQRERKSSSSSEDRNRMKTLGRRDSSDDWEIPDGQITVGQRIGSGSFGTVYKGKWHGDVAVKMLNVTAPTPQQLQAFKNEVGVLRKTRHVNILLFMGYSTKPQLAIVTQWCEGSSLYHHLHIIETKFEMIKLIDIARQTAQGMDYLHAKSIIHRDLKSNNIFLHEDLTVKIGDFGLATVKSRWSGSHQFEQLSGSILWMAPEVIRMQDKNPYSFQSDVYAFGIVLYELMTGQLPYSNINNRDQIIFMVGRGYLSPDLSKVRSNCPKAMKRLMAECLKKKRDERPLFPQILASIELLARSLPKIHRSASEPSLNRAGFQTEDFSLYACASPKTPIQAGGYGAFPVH
For assay [2], the target named is T1, Serine/threonine-protein kinase B-raf. Briefly: Binding affinity to recombinant human full-length wild type B-Raf (unknown origin) assessed as VFLPNK accessible protease cleavage peptide level by LC-MS/MS analysis relative to control.
Target sequence in this assay (P15056 whole entry): as above
For assay [3] the target is unchanged. Briefly: Binding affinity to recombinant human full-length wild type B-Raf (unknown origin) assessed as 7VVPAR accessible protease cleavage peptide level by LC-MS/MS analysis relative to control. Also: test concentration or dose not given here.
Target sequence in this assay (P15056 whole entry): as above
For assay [4] the target is unchanged. The assay is described as follows: Binding affinity to recombinant human full-length wild type B-Raf (unknown origin) assessed as DSLKK accessible protease cleavage peptide level by LC-MS/MS analysis relative to control.
Target sequence in this assay (P15056 whole entry): as above
The target is the same in assay [5]. The assay is described as follows: Binding affinity to recombinant human full-length wild type B-Raf (unknown origin) assessed as SIPIPQPFRPADEDHR accessible protease cleavage peptide level by LC-MS/MS analysis relative to control. Also: test concentration or dose not given here.
Target sequence in this assay (P15056 whole entry): as above
Assay [6] has the same target. Briefly: Binding affinity to recombinant human full-length wild type B-Raf (unknown origin) assessed as GDGGSTTGLSATPPASLPGSLTNVK accessible protease cleavage peptide level by LC-MS/MS analysis relative to control.
Target sequence in this assay (P15056 whole entry): as the sequence (P15056 whole entry) above
The target is the same in assay [7]. Briefly: Binding affinity to recombinant human full-length wild type B-Raf (unknown origin) assessed as DSSDDWEIPDGQITVGQR accessible protease cleavage peptide level by LC-MS/MS analysis relative to control. Also: test concentration or dose not given here.
The target is the same in assay [8]. The assay is described as follows: Binding affinity to recombinant human full-length wild type B-Raf (unknown origin) assessed as IGSGSFGTVYK accessible protease cleavage peptide level by LC-MS/MS analysis relative to control.
For assay [9] the target is unchanged. Briefly: Binding affinity to recombinant human full-length wild type B-Raf (unknown origin) assessed as WHGDVAVK accessible protease cleavage peptide level by LC-MS/MS analysis relative to control.
Assay [10] shares this target. Briefly: Binding affinity to recombinant human full-length wild type B-Raf (unknown origin) assessed as NEVGVLR accessible protease cleavage peptide level by LC-MS/MS analysis relative to control.
Assay [11] shares this target. Briefly: Binding affinity to recombinant human full-length wild type B-Raf (unknown origin) assessed as LIDIAR accessible protease cleavage peptide level by LC-MS/MS analysis relative to control. Also: test concentration or dose not given here.
For assay [12] the target is unchanged. Briefly: Binding affinity to recombinant human full-length wild type B-Raf (unknown origin) assessed as QTAQGMDYLHAK accessible protease cleavage peptide level by LC-MS/MS analysis relative to control.
Assay [13] has the same target. Briefly: Binding affinity to recombinant human full-length wild type B-Raf (unknown origin) assessed as SIIHRDLK accessible protease cleavage peptide level by LC-MS/MS analysis relative to control.
Assay [14] shares this target. The assay is described as follows: Binding affinity to recombinant human full-length wild type B-Raf (unknown origin) assessed as SNNIFLHEDLTVK accessible protease cleavage peptide level by LC-MS/MS analysis relative to control. Also: test concentration or dose not given here.
Assay [15] shares this target. Briefly: Binding affinity to recombinant human full-length wild type B-Raf (unknown origin) assessed as IGDFGLATVK accessible protease cleavage peptide level by LC-MS/MS analysis relative to control.
For assay [16] the target is unchanged. Briefly: Binding affinity to recombinant human full-length wild type B-Raf (unknown origin) assessed as DQIIFMVGR accessible protease cleavage peptide level by LC-MS/MS analysis relative to control.
The target is the same in assay [17]. Briefly: Binding affinity to recombinant human full-length wild type B-Raf (unknown origin) assessed as GYLSPDLSK accessible protease cleavage peptide level by LC-MS/MS analysis relative to control.
Assay [18] has the same target. The assay is described as follows: Binding affinity to recombinant human full-length wild type B-Raf (unknown origin) assessed as SASEPSLNR accessible protease cleavage peptide level by LC-MS/MS analysis relative to control.
The target is the same in assay [19]. Briefly: Binding affinity to recombinant human full-length wild type B-Raf (unknown origin) assessed as TPIQAGGYGAFPVH accessible protease cleavage peptide level by LC-MS/MS analysis relative to control. Also: test concentration or dose not given here.
In assay [20] the target is T2, Serine/threonine-protein kinase B-raf (Homo sapiens, UniProt P15056, V600E). Briefly: Inhibition of B-Raf V600E mutant (unknown origin) assessed as inhibition of phosphorylation of peptide substrate.
T2 sequence (P15056 2-766 V600E limits assumed): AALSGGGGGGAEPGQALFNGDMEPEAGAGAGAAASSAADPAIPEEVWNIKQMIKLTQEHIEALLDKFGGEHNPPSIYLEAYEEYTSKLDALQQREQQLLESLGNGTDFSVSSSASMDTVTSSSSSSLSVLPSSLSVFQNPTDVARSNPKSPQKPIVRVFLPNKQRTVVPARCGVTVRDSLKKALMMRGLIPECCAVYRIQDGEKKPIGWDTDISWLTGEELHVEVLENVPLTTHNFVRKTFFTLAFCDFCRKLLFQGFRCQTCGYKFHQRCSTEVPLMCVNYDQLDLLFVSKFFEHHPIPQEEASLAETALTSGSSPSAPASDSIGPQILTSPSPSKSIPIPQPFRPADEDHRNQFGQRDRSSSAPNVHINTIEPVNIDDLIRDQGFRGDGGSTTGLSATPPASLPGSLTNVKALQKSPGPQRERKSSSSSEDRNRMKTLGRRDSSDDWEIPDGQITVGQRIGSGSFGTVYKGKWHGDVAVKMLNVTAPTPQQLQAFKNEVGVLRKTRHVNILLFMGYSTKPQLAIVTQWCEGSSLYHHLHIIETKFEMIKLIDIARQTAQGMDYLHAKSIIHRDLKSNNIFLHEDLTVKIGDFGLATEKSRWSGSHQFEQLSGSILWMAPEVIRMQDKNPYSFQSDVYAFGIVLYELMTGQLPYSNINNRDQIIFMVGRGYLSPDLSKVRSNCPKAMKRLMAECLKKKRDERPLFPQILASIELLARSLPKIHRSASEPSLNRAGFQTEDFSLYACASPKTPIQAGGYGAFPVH
Assay [21] concerns the target T2, Serine/threonine-protein kinase B-raf. Briefly: Binding affinity to B-Raf V600E mutant (unknown origin).
The target of assay [22] is T1, Serine/threonine-protein kinase B-raf. Briefly: Binding affinity to wild type B-Raf (unknown origin).
Assay [23] has as its target T2, Serine/threonine-protein kinase B-raf. Briefly: Inhibition of B-Raf V600E mutant in human A375 cells assessed as phosphorylation of ERK. Type of assay: cell-based, A-375.
The next assay concerns A-375. The assay is described as follows: Inhibition of cell proliferation in human A375 cells expressing B-Raf V600E mutant after 96 hrs by MTT assay. It counts as functional, cell-based. A general note: Tetrazolium dyes change colour on reduction, which living cells bring about.
Another assay concerns SW-620. Briefly: Inhibition of cell proliferation in human SW620 cells expressing wild type B-Raf after 96 hrs by MTT assay. Type of assay: functional, cell-based.
Assay [24] concerns the target T1, Serine/threonine-protein kinase B-raf. The assay is described as follows: Inhibition of phosphorylation of MEK level in human SW620 cells expressing wild type B-Raf at 3 microM after 48 hrs by immunoblotting analysis. Type of assay: cell-based. The conditions noted are these: SW-620.
Assay [25] has the same target. Briefly: Inhibition of phosphorylation of ERK level in human SW620 cells expressing wild type B-Raf at 3 microM after 48 hrs by immunoblotting analysis. It counts as cell-based. The conditions noted are these: SW-620. For orientation: Immunoblotting shows a protein as a band on a membrane.
Assay [26] shares this target. Briefly: Activation of tumorigenic wild type B-Raf in human IPC-298 cells with Ras mutation assessed as phosphorylation of ERK. Type of assay: cell-based.
Target sequence in this assay (P15056 2-766 limits assumed, change not shown): as the sequence (P15056 2-766 V600E limits assumed) above, with E599V counted along it

SMILES strings stand for the structures. pEC50, pIC50, pKd: −log10 of the molar value. Calls of active or inactive are those of the source. The rule behind the calls is not given here. Where only a bound is given, the exact number is not on record here.

Take `Nc1ncnc2c1ncn2[C@@H]1O[C@H](COP(=O)(O)OP(=O)(O)NP(=O)(O)O)[C@@H](O)[C@H]1O`: the Ratio in [1] turned out to be 0.83; in [2], 0.91; in assay [3], 0.89; in assay [4], 0.76; in assay [5], 1; in assay [6] it was 0.98. Besides, the Ratio was 0.71 in assay [7]; 0.83 in [8]; 0.67 in assay [9]; 0.46 in assay [10]; 0.55 in assay [11]; 0.72 in assay [12]. Moreover, the Ratio in assay [13] was found to be 0.37; in [14] it was 1.03; in assay [15], 0.79; in [16], 0.62; in [17], 0.82; in assay [18] it was 0.95. Further, the Ratio in assay [19] was found to be 1.14.

As for `CCN(C)S(=O)(=O)Nc1ccc(F)c(C(=O)c2c[nH]c3ncc(-c4ccc(Cl)cc4)cc23)c1F`, the figures for the pIC50 in assay [20] and in assay [23] were above 7.00 and above 6.00, respectively. Moreover, the values for the pKd in assay [21] and in assay [22] were 5.85 and 6.16, respectively. Also, the inhibition result (with A-375; in assay [24]; in [25]) was “Active” in each case. Also, the inhibition result with SW-620 is “inactive”. For the same molecule, the Ratio in assay [1] was 0.94; in assay [2], 0.73; in assay [3] it was 0.96; in [4] it was 0.93; in [5], 1.27; in assay [6], 1.16. Besides, the Ratio is 0.37 in assay [7]; 0.42 in assay [8]; 0.36 in [9]; 0.12 in assay [10]; 0.23 in [11]; 0.36 in assay [12]. In addition, the Ratio in [13] came to 0.3; in assay [14], 0.11; in assay [15] it was 0.3; in assay [16], 0.48; in assay [17], 0.41; in assay [18], 1.53. Moreover, the Ratio in assay [19] came to 1.22. The pEC50 in assay [26] is below 5.00.

As for `Nc1ncnc2c1ncn2[C@@H]1O[C@H](COP(=O)(O)OP(=O)(O)OP(=O)(O)O)[C@@H](O)[C@H]1O`, the Ratio in assay [1] is 0.64; in [2] it was 0.78; in [3], 0.97; in assay [4] it was 0.76; in assay [5], 0.75; in assay [6], 0.68. Also, the Ratio in assay [7] turned out to be 0.62; in assay [8], 0.62; in assay [9] it was 0.75; in assay [10], 0.34; in [11], 0.54; in [12], 0.81. The Ratio came to 1.16 in assay [13]; 0.77 in assay [14]; 0.72 in assay [15]; 0.57 in assay [16]; 0.76 in assay [17]; 0.94 in assay [18]. Further, the Ratio in assay [19] stood at 0.95.

For the molecule `CCN(C)S(=O)(=O)Nc1ccc(F)c(C(=O)c2c[nH]c3ncc(Cl)cc23)c1F`, the figures for the pIC50 in assay [20] and in assay [23] were above 7.00 and above 6.00, respectively. Also, the negative logarithm of the Kd (pKd) in assay [21] was 6.26; in assay [22], 6.40. The inhibition result (with A-375; in assay [24]; in assay [25]) was “Active” in each case. Further, the inhibition entry in the assay on SW-620 was “inactive”. In addition, the Ratio in assay [1] turned out to be 1.11; in assay [2], 1.01; in assay [3] it was 1.26; in [4] it was 1.71; in assay [5] it was 1.45; in [6] it was 1.55. In addition, the Ratio in [7] worked out at 0.56; in [8] it was 0.62; in assay [9] it was 0.5; in assay [10], 0.37; in assay [11], 0.5; in assay [12], 0.9. The Ratio in assay [13] is 0.47; in [14], 0.21; in assay [15] it was 0.53; in [16] it was 0.83; in assay [17], 0.91; in [18] it was 1.8. Further, in assay [19], the Ratio came to 1.42. In assay [26], the pEC50 was below 5.00.

For `Nc1ncnc2c1ncn2[C@@H]1O[C@H](COP(=O)(O)OP(=O)(O)O)[C@@H](O)[C@H]1O`, the Ratio in assay [1] stood at 1.14; in [2], 1.24; in assay [3], 1.21; in assay [4] it was 1.34; in assay [5], 1.34; in assay [6], 1.28. Further, the Ratio was found to be 0.83 in assay [7]; 1.18 in [8]; 0.99 in assay [9]; 1.13 in assay [10]; 0.86 in assay [11]; 1.22 in assay [12]. The Ratio in [13] amounted to 0.32; in [14], 1.9; in [15], 1.3; in assay [16], 1.36; in [17], 1.27; in assay [18], 1.04. Moreover, the Ratio in assay [19] is 1.42.
